Read-outs that look alike come from different tables or passages of the source. One block for each compound: values may come before it.
Tests used:
Male Sprague-Dawley Rats [1] = assay: Nephrotoxicity of non-deuterated D-serine at 300 mg/kg PO (Example 2); type: in vivo
Procedure: (§1) The hippocampus, cortex and plasma were collected and analyzed. Additional blood was collected and were analyzed for the full clinical chemistry profile. Urine was also collected and examined for glucose and total protein. […] The mean plasma, hippocampus, and cortex concentration at 1 hour are 19200 ng/mL, 674 ng/g, and 754 ng/g; respectively. The mean plasma, hippocampus, and cortex concentrations at 8 hours were 11250 ng/mL, 17725 ng/g, and 11875 ng/g, respectively. […] Blood urea nitrogen and creatinine levels were elevated.

[2] = Pharmacokinetics of non-deuterated D-serine after a 300 mg/kg PO dose (Example 2); type: in vivo, Male Sprague-Dawley Rats; conditions: male, Sprague-Dawley, rat; for concentration at 1 h: oral, 300 mg/kg, 1 hour (in Example 2); for concentration at 1 h / concentration at 8 h: mean
Procedure: as §1

[3] = Pharmacokinetic profile of Compound 100 and non-deuterated D-serine after 150 mg/kg PO doses (Example 3); type: in vivo, male Sprague-Dawley rats; conditions: for AUC(0-inf) / Cmax / Tmax / concentration at 4 h / concentration at 8 h / concentration at 24 h: male, Sprague-Dawley, rat; for concentration at 4 h / concentration at 8 h / concentration at 24 h: po
Excerpt: (§2) The pharmacokinetic profile of Compound 100 was investigated in male Sprague-Dawley rats compared with that of non-deuterated D-serine. […] Plasma was collected and analyzed for Compound 100 and non-deuterated D-Serine. Additional blood was collected and analyzed for the full clinical chemistry profile.

[4] = Pharmacokinetics of deuterated and non-deuterated D-serine, PO 10 mg/kg (Example 5); type: in vivo, male Sprague Dawley rats; conditions: male, Sprague Dawley, rat, plasma, 0.5% Methylcellulose
Procedure: Three rats were used for each group. Blood was collected at the following time points: for IV dosing: pre-dose, 0.05, 0.167, 0.5, 1, 2, 4, 6, 8 and 12 hours post-dose; for PO dosing: pre-dose, 0.25, 0.5, 1, 2, 4, 6, 8 and 12 hours post-dose PO. Urine was collected at pre-dose (minimum 12 hours), 0-6, 6-12 and 12-24 hours. Plasma samples were analyzed and quantified for dosed compound LC-MS/MS.

Male Sprague-Dawley Rats [5] = assay: Nephrotoxicity dose response of non-deuterated D-serine, 30-300 mg/kg PO (Example 4); type: in vivo; conditions: 24 hr samples at the 150 and 300 mg/kg doses, compared to control and reference values
Excerpt: (§3) The pharmacokinetic profile of non-deuterated D-serine was investigated in male Sprague-Dawley rats. […] Plasma was collected and analyzed for the non-deuterated D-serine. Additional blood was collected and analyzed for the full clinical chemistry profile.

rats = assay: Nephrotoxicity comparison at doses from 150 mg/kg to 750 mg/kg (dose escalation, FIGS. 7-10); type: in vivo; conditions: for changes in BUN or creatinine: PO doses from 150 mg/kg to 750 mg/kg
[6] = biological target: T1, human NMDAR subunits GluN1 and GluN2A (Homo sapiens, UniProt Q05586); assay: NMDA receptor activation in automated patch clamp system (ScreenPatch); type: cell-based; conditions: HEK293 cells, 0.003 to 10 μM, Compound 100 versus d-serine
T1 construct: expressed in transfected cells; host or cells: HEK293
Procedure: Peak current and steady state current were measured. The activity at the NMDA receptor was indistinguishable for the two compounds.

[7] = Pharmacokinetics dose response of non-deuterated D-serine, 30-300 mg/kg PO (Example 4); type: in vivo, male Sprague-Dawley rats; conditions: plasma; for Cmax / AUC(0-inf): (CV %)
Excerpt: as §3

Male Sprague-Dawley Rats [8] = assay: Nephrotoxicity of Compound 100 and non-deuterated D-serine at 150 mg/kg PO (Example 3); type: in vivo
Excerpt: as §2

[9] = Brain distribution of Compound 100 after a single 100 mg/kg PO dose (Example 10); type: in vivo, male Sprague-Dawley rats; conditions: male, Sprague-Dawley, rat, mean
Procedure: The distribution profile of Compound 100 was investigated in male Sprague-Dawley rats. […] At 24 hours after dosing, tissues from perfused brain and plasma were collected and analyzed by LC-MS.

[10] = Plasma, hippocampus and cortex concentration of Compound 100 after a 30 mg/kg PO dose (Example 1); type: in vivo, male Sprague Dawley rats; conditions: male, Sprague-Dawley, rat, mean
Procedure: The mean plasma, hippocampus, and cortex concentrations at 1 hour were 19200 ng/mL, 674 ng/g, and 754 ng/g, respectively. The mean plasma, hippocampus, and cortex concentrations at 6 hours were 1780 ng/mL, 1385 ng/g, and 936 ng/g, respectively.

[11] = Cortex versus plasma half-life of Compound 100 after 4 days of 100 mg/kg PO dosing (Example 11); type: in vivo, male Sprague-Dawley rats; conditions: male, Sprague-Dawley, rat, 100 mg/kg PO once per day for 4 days
Procedure: After 4 days, tissues from perfused brain and plasma were collected and analyzed by LC-MS at 24 hours (group 1), 72 hours (group 2) and 120 hours (group 3) after dosing.

[12] = cortex, read-out: Cortex concentration
[13] = hippocampus, read-out: Hippocampus concentration
[14] = plasma, read-out: Plasma concentration
[15] = dose escalation 150 mg/kg to 750 mg/kg
[16] = serum, D-serine at 24 hr, Compound 100 at 4, 8, and 24 hours
[17] = cortex, 150 mg/kg, mean, read-out: Cortex concentration
[18] = hippocampus, 150 mg/kg, mean, read-out: Hippocampus concentration
[19] = plasma, 150 mg/kg, mean, read-out: Plasma concentration

concentration at 1 h [2, 12]: 754 ng/g
concentration at 8 h ([2]; cortex, 300 mg/kg PO, read-out: Cortex concentration): 11900 ng/g
concentration at 1 h [2, 13]: 674 ng/g
concentration at 8 h ([2]; hippocampus, 300 mg/kg PO, read-out: Hippocampus concentration): 17700 ng/g
concentration at 1 h [2, 14]: 19200 ng/mL
concentration at 8 h ([2]; plasma, 300 mg/kg PO, endogenous level subtracted, read-out: Plasma concentration): 11200 ng/mL
AUC(0-inf) ([2]; plasma, 300 mg/kg PO): 500 µg·h/mL
Cmax ([2]; plasma, 300 mg/kg PO): 268000 ng/mL
Tmax ([2]; plasma, 300 mg/kg PO): 30 min
half-life ([2]; plasma, 300 mg/kg PO): 218 min
AUC(0-inf) ([3]; plasma): 349 µg·h/mL
Cmax ([3]; plasma): 180000 ng/mL
Tmax ([3]; plasma): 20 min
AUC(0-inf) [4]: 13.2 µg·h/mL
Cmax [4]: 8780 ng/mL
Tmax [4]: 25 min
half-life [4]: 106 min
activity at the NMDA receptor (peak current and steady state current) [6]: indistinguishable
Tmax ([7]; male, Sprague-Dawley, rat, po, 30 mg/kg, 30 mg/kg PO): 30 min
Cmax ([7]; male, Sprague-Dawley, rat, po, 30 mg/kg, 30 mg/kg PO, read-out: Cmax): 24300 ng/mL
Tmax ([7]; male, Sprague-Dawley, rat, po, 75 mg/kg, 75 mg/kg PO): 30 min
Cmax ([7]; male, Sprague-Dawley, rat, po, 75 mg/kg, 75 mg/kg PO, read-out: Cmax): 54300 ng/mL
Tmax ([7]; male, Sprague-Dawley, rat, po, 100 mg/kg, 100 mg/kg PO): 30 min
Cmax ([7]; male, Sprague-Dawley, rat, po, 100 mg/kg, 100 mg/kg PO, read-out: Cmax): 96100 ng/mL
Tmax ([7]; male, Sprague-Dawley, rat, po, 150 mg/kg, 150 mg/kg PO): 18 min
Cmax ([7]; male, Sprague-Dawley, rat, po, 150 mg/kg, 150 mg/kg PO, read-out: Cmax): 180000 ng/mL
Tmax ([7]; male, Sprague-Dawley, rat, po, 300 mg/kg, 300 mg/kg PO): 30 min
Cmax ([7]; male, Sprague-Dawley, rat, po, 300 mg/kg, 300 mg/kg PO, read-out: Cmax): 216000 ng/mL
Tmax ([7]; male, Sprague-Dawley, rat, po, 300 mg/kg, all doses 30, 75, 100, 150, and 300 mg/kg PO): 18 to 30 min
AUC(0-inf) ([7]; male, Sprague-Dawley, rat, 30 mg/kg PO): 50.6 µg·h/mL
AUC(0-inf) ([7]; male, Sprague-Dawley, rat, 75 mg/kg PO): 148 µg·h/mL
AUC(0-inf) ([7]; male, Sprague-Dawley, rat, 100 mg/kg PO): 246 µg·h/mL
AUC(0-inf) ([7]; male, Sprague-Dawley, rat, 150 mg/kg PO): 349 µg·h/mL
AUC(0-inf) ([7]; male, Sprague-Dawley, rat, 300 mg/kg PO): 911 µg·h/mL
Cmax ([7]; 300 mg/kg PO, 300 mg/kg): 261000 (32.3%) ng/mL
SMILES: N[C@H](CO)C(=O)O [Non-deuterated D-Serine, D-serine]
Blood urea nitrogen level (Male Sprague-Dawley Rats [1]): elevated
creatinine level (Male Sprague-Dawley Rats [1]): elevated
glucose in urine (Male Sprague-Dawley Rats [1]): presence of glucose was observed
creatine level (Male Sprague-Dawley Rats [5]): Elevated levels
gamma glutamyl transferase (GGT) level (Male Sprague-Dawley Rats [5]): Elevated levels
urea nitrogen level (Male Sprague-Dawley Rats [5]): Elevated levels
changes in BUN or creatinine (rats): increasingly elevated levels
gross signs of nephrotoxicity (rats; [15]): observed
levels of biomarkers of nephrotoxicity (Male Sprague-Dawley Rats [8]): caused an increase
blood urea nitrogen (BUN) level (Male Sprague-Dawley Rats [8]; serum, D-serine at 8 hr and 24 hr, Compound 100 at 4, 8, and 24 hours): Elevated levels
creatinine level (Male Sprague-Dawley Rats [8]; [16]): Elevated levels
gamma glutamyl transferase (GGT) level (Male Sprague-Dawley Rats [8]; [16]): Elevated levels

concentration at 24 h ([9]; brain stem, perfused brain, read-out: brain stem concentration): 721 ng/g
concentration at 24 h ([9]; cerebellum, perfused brain, read-out: cerebellum concentration): 290 ng/g
concentration at 24 h ([9]; cortex, perfused brain, read-out: cortex concentration): 4660 ng/g
concentration at 24 h ([9]; plasma, read-out: plasma concentration): 880 ng/mL
concentration at 4 h [3, 17]: 5070 ng/g
concentration at 8 h [3, 17]: 4040 ng/g
concentration at 24 h ([3]; cortex, 150 mg/kg, mean, 24 hr, read-out: Cortex concentration): 2420 ng/g
concentration at 4 h [3, 18]: 6160 ng/g
concentration at 8 h [3, 18]: 4340 ng/g
concentration at 24 h ([3]; hippocampus, 150 mg/kg, mean, 24 hr, read-out: Hippocampus concentration): 4200 ng/g
AUC(0-inf) ([3]; plasma): 383 µg·h/mL
Cmax ([3]; plasma): 186000 ng/mL
Tmax ([3]; plasma): 40 min
concentration at 4 h [3, 19]: 23300 ng/mL
concentration at 8 h [3, 19]: 2040 ng/mL
concentration at 24 h ([3]; plasma, 150 mg/kg, mean, 24 hr, read-out: Plasma concentration): 711 ng/mL
Hippocampus concentration ([3]; mean, 24 hr, 150 mg/kg): 4220 ng/g
AUC(0-inf) [4]: 21.5 µg·h/mL
Cmax [4]: 11400 ng/mL
Tmax [4]: 25 min
half-life [4]: 160 min
concentration at 1 h [10, 12]: 754 ng/g
concentration at 6 h [10, 12]: 936 ng/g
concentration at 1 h [10, 13]: 674 ng/g
concentration at 6 h [10, 13]: 1380 ng/g
concentration at 1 h [10, 14]: 19200 ng/mL
concentration at 6 h [10, 14]: 1780 ng/mL
half-life ([11]; cortex, read-out: half-life (T1/2) in the cortex (converted)): ~48 h
half-life ([11]; plasma, read-out: plasma T1/2): < 12 h
activity at the NMDA receptor (peak current and steady state current) [6]: indistinguishable
SMILES: [2H][C@@](N)(CO)C(=O)O [Compound 100, (2R)-2-amino-2-deutero-3-hydroxy-propanoic acid]
changes in BUN or creatinine (rats): minimal changes
exposure as measured by AUC and Cmax, versus non-deuterated D-serine (rats; [15]): greater
gross signs of nephrotoxicity (rats; [15]): not
levels of biomarkers of nephrotoxicity (Male Sprague-Dawley Rats [8]): did not increase
